Starred links: 1 amine or outer side, 2 acyl side, 3 side chain; linkers in the order of their positions; H or OH if unused. Positions of bridges follow the written chain, without caps; N, C: chain ends. Non-standard residues stand in square brackets, D forms with d. Residues, ends and D or L forms follow the SMILES beside them. *: point of attachment. X6 = O=C(CCC(=O)[*:3])N[C@@H](CS[*:2])C(=O)[*:1]; Trp(7-Me) = Cc1cccc2c(C[C@H](N)C(=O)O)c[nH]c12; X1 = O=C(CCCCN[*:3])N[C@@H](CS[*:2])C(=O)[*:1]; αMeLys(Me2) = CN(C)CCCC[C@](C)(N)C(=O)O; 2Nal = N[C@@H](Cc1ccc2ccccc2c1)C(=O)O; NMe5Ava = CN(CCCCC(=O)[*:2])[*:1]; Palmitoyl = CCCCCCCCCCCCCCCC(=O)*; 3Pal = N[C@@H](Cc1cccnc1)C(=O)O; αMeL = CC(C)C[C@](C)(N)C(=O)O; Suc = O=C(CCC(=O)[*:2])[*:1]; αMeK = C[C@](N)(CCCCN)C(=O)O; Thp = NC1(C(=O)O)CCOCC1; Me2NCH2CH2 = CN(C)CC*; Aib = CC(C)(N)C(=O)O; Ava = NCCCCC(=O)O; Sar = CNCC(=O)O
What was measured:
Pancreatin = assay: Protease stability in simulated intestinal fluid (Pancreatin-SIF, FaSSIF); type: in vitro ADME; conditions: 1 μM peptide, 37° C.; for remaining at 1 h, 1 µM: 60 min, read-out: FaSSIF 60 (min), remaining percent of peptide; for remaining at 2 h, 1 µM: 120 min, read-out: FaSSIF 120 (min), remaining percent of peptide; for remaining at 4 h, 1 µM: 240 min, read-out: FaSSIF 240 (min), remaining percent of peptide
Protocol: (§1) Studies were carried out in simulated intestinal fluid (SIF) and simulated gastric fluid (SGF) to evaluate gastric stability of the peptide compounds disclosed herein.
Similarly, the term “Pancreatin-SIF” refers to a solution of simulated intestinal fluid containing pancreatin whereas “SIF-media” refers to a solution of simulated intestinal fluid without pancreatin.
Pancreatin-SIF was prepared by dissolving 1 mg Pancreatin (MP Biomedicals) in 10 mL SIF media concentrate (ProSense).
(§2) Peptides were first dissolved at 1 mM stock concentration in 0.01 HCl (+/−10% of DMSO) and were than diluted further with water to a stock concentration of 20 μM. Final peptide concentration in the incubation was 1 μM.
(§3) To 76 μL of the Pepsin-SGF buffer, 4 μL of the 20 µM peptide stock solution was added and incubated at 37° C. At each timepoint (0, 60, 120 and 240 minutes) the reaction was quenched with addition of 80 μL Ethanol (0.1% HCOOH). The samples were centrifuged for 20 minutes and an aliquot of the supernatant 100 μL were transferred to a LoBind-MTP plate and analyzed by LCMS/MS. The peak area response was calculated at each time point for each test compound. As internal reference, the peak area response of the same test compound at TO was calculated. The percent remaining at each timepoint was calculated based on the peak area response ratio of the test compound at TO. Time 0 was set to 100%, and all later timepoints were calculated relative to time 0.

Pepsin = system: T1, Pepsin; assay: Protease stability in simulated gastric fluid (Pepsin-SGF, FaSSGF); type: in vitro ADME; conditions: simulated gastric fluid with pepsin (Pepsin-SGF), 60 min, 1 μM peptide, 37° C., read-out: FaSSGF 60 (min), remaining percent of peptide
T1 construct: purchased Merck Millipore
Protocol: as §1
For clarification the term “Pepsin-SGF” refers to a solution of simulated gastric fluid containing pepsin whereas “SGF media” refers to a solution of simulated gastric fluid without pepsin. Pepsin-SGF was prepared by dissolving 320 mg Pepsin (Merck Millipore) in 100 mL SGF media concentrate (ProSense).
as §2
as §3, with “μM” for “µM”

[1] = target: T2, human interleukin-23 receptor (recombinant human IL-23R-Fc chimera) (Homo sapiens, UniProt Q5VWK5); assay: Human ELISA IL23/IL23R (assay for specific human IL23R antagonists); type: binding; conditions: Table 10; read-out: Human ELISA IL23/IL23R IC50
T2 construct: Fc (IgG Fc fusion)
Outline: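 Competition format: peptide dilutions compete for IL23R-Fc chimera (0.1 μg/ml final, 60 min, room temperature) binding to immobilized human IL23 coated at […] overnight at 4 °C. Read-out is fluorogenic HRP signal from goat anti-hu-IgG1 detecting captured receptor.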

[2] = system: IL-23 induced STAT3 signaling in HEK-Blue™ IL-23 cells; assay: IL-23 induced STAT3 signaling in HEK-Blue IL-23 cells (SEAP reporter); type: cell-based; conditions: human IL23 0.25 ng/ml, read-out: pSTAT3
Outline: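 Secreted SEAP, read at OD 620-655 nm after 45 min QUANTI-Blue development, reports STAT3 activation. Beforehand, cells were exposed to peptide dilutions for 60 min at 37 °C and then to 0.25 ng/ml final human IL-23 overnight, at 10,000 cells/well.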

CC(=O)NCCCC[C@@H]1NC(=O)[C@H](Cc2c[nH]c3ccccc23)NC(=O)[C@H]([C@@H](C)O)NC(=O)[C@H](CC(N)=O)NC(=O)[C@@H]2CSSC[C@H](NC1=O)C(=O)N[C@@H](Cc1ccc(OCCN(C)C)cc1)C(=O)N[C@@H](Cc1ccc3ccccc3c1)C(=O)N[C@@](C)(CCCCN(C)C)C(=O)N[C@H](C(=O)N[C@@H](CC(N)=O)C(=O)N[C@@H](Cc1cccnc1)C(=O)N(C)CC(N)=O)CCC(=O)NCCCCC(=O)N2 [compound 58] ([Ava]CNTWK(Ac)CY(Me2NCH2CH2)[2Nal][αMeLys(Me2)]EN[3Pal][Sar]-NH2; disulfide 2-7; lactam N-11) gave a remaining at 1 h, 1 µM (Pancreatin) of 100%, a remaining at 2 h, 1 µM (Pancreatin) of 98% and a remaining at 4 h, 1 µM (Pancreatin) of 80%. It also gave a remaining at 1 h, 1 µM (Pepsin) of 93%, an IC50 [1] of 0.16 nM and an IC50 [2] of 0.1 nM.

CC(C)C[C@]1(C)NC(=O)[C@H](Cc2ccc3ccccc3c2)NC(=O)[C@H](Cc2ccc(OCCN(C)C)cc2)NC(=O)[C@@H]2CSSC[C@H](NC(=O)CCCCN(C)C(=O)CC[C@@H](C(=O)N[C@@H](CC(N)=O)C(=O)N[C@@H](CC(N)=O)C(N)=O)NC1=O)C(=O)N[C@@H](CC(N)=O)C(=O)N[C@@H]([C@@H](C)O)C(=O)N[C@@H](Cc1c[nH]c3ccccc13)C(=O)N[C@@H](CCC(N)=O)C(=O)N2 [compound 41] ([NMe5Ava]CNTWQCY(Me2NCH2CH2)[2Nal][αMeL]ENN-NH2; disulfide 2-7; lactam N-11) gave a remaining at 1 h, 1 µM (Pancreatin) of 83%, a remaining at 2 h, 1 µM (Pancreatin) of 71% and a remaining at 4 h, 1 µM (Pancreatin) of 57%. It also gave a remaining at 1 h, 1 µM (Pepsin) of 90%, an IC50 [1] of 0.35 nM and an IC50 [2] of 1.6 nM.

Work on Cc1cccc2c(C[C@@H]3NC(=O)[C@H]([C@@H](C)O)NC(=O)[C@H](CC(N)=O)NC(=O)[C@@H]4CSSC[C@H](NC(=O)[C@H](CC(C)C)NC3=O)C(=O)N[C@@H](Cc3ccc(OCCN(C)C)cc3)C(=O)N[C@@H](Cc3ccc5ccccc5c3)C(=O)N[C@@](C)(CCCCN(C)C)C(=O)N[C@H](C(=O)N[C@@H](C)C(=O)N[C@@H](Cc3cccnc3)C(=O)N(C)CC(N)=O)CCCCNC(=O)CCC(=O)N4)c[nH]c12 [compound 155] (CNT[Trp(7-Me)]LCY(Me2NCH2CH2)[2Nal][αMeLys(Me2)]KA[3Pal][Sar]-NH2; disulfide 1-6; linker N-10 via Suc) yielded a remaining at 1 h, 1 µM (Pancreatin) of 98%, a remaining at 2 h, 1 µM (Pancreatin) of 98% and a remaining at 4 h, 1 µM (Pancreatin) of 98%. It also gave a remaining at 1 h, 1 µM (Pepsin) of 98%, an IC50 [1] of 0.7 nM and an IC50 [2] of 0.1 nM.

CC(=O)NCCCC[C@@H]1NC(=O)[C@H](Cc2c[nH]c3c(C)cccc23)NC(=O)[C@H]([C@@H](C)O)NC(=O)[C@H](CC(N)=O)NC(=O)[C@@H]2CSSC[C@H](NC1=O)C(=O)N[C@@H](Cc1ccc(OCCN(C)C)cc1)C(=O)N[C@@H](Cc1ccc3ccccc3c1)C(=O)NC(C)(C)C(=O)N[C@H](C(=O)N[C@@H](CC(N)=O)C(=O)N[C@@H](Cc1c[nH]cn1)C(N)=O)CCC(=O)NCCCCC(=O)N2 [compound 20] ([Ava]CNT[Trp(7-Me)]K(Ac)CY(Me2NCH2CH2)[2Nal][Aib]ENH-NH2; disulfide 2-7; lactam N-11) was tested, and the remaining at 1 h, 1 µM (Pancreatin) was 85%, the remaining at 2 h, 1 µM (Pancreatin) was 81% and the remaining at 4 h, 1 µM (Pancreatin) was 72%. It also gave a remaining at 1 h, 1 µM (Pepsin) of 95%, an IC50 [1] of 0.5 nM and an IC50 [2] of 3.12 nM.

For C[C@@H](O)[C@@H]1NC(=O)[C@H](CC(N)=O)NC(=O)[C@@H]2CSSC[C@H](NC(=O)[C@H](CCC(N)=O)NC(=O)[C@H](Cc3c[nH]c4ccccc34)NC1=O)C(=O)N[C@@H](Cc1ccc(OCCN(C)C)cc1)C(=O)N[C@@H](Cc1ccc3ccccc3c1)C(=O)NC1(CCOCC1)C(=O)N[C@H](C(=O)N[C@@H](CC(N)=O)C(=O)N[C@@H](CC(N)=O)C(N)=O)CCC(=O)NCCCCC(=O)N2 [compound 26] ([Ava]CNTWQCY(Me2NCH2CH2)[2Nal][Thp]ENN-NH2; disulfide 2-7; lactam N-11), the remaining at 1 h, 1 µM (Pancreatin) was 95%, the remaining at 2 h, 1 µM (Pancreatin) was 95% and the remaining at 4 h, 1 µM (Pancreatin) was 94%. The remaining at 1 h, 1 µM (Pepsin) was 95%, the IC50 [1] was 0.29 nM and the IC50 [2] was 3.37 nM.

Molecule CCCCCCCCCCCCCCCC(=O)NCCCC[C@]1(C)NC(=O)[C@H](Cc2ccc3ccccc3c2)NC(=O)[C@H](Cc2ccc(OCCN(C)C)cc2)NC(=O)[C@@H]2CSSC[C@H](NC(=O)CCCCNC(=O)CC[C@@H](C(=O)N[C@@H](CC(N)=O)C(=O)N[C@@H](Cc3cccnc3)C(=O)N(C)CC(N)=O)NC1=O)C(=O)NCCCC[C@H](NC(C)=O)C(=O)N[C@@H](Cc1c[nH]c3c(C)cccc13)C(=O)N[C@@H](CCCCNC(C)=O)C(=O)N2 [compound 67] (Ac-K[Trp(7-Me)]K(Ac)CY(Me2NCH2CH2)[2Nal][αMeK](Palmitoyl)EN[3Pal][Sar]-NH2; linker 1-4-8 via X1) has a remaining at 1 h, 1 µM (Pancreatin) of 99%, a remaining at 2 h, 1 µM (Pancreatin) of 98% and a remaining at 4 h, 1 µM (Pancreatin) of 98%. It also gave a remaining at 1 h, 1 µM (Pepsin) of 102%, an IC50 [1] of 2.27 nM and an IC50 [2] of 22.6 nM.

CC(=O)NCCCC[C@@H]1NC(=O)[C@H](Cc2c[nH]c3c(C)cccc23)NC(=O)[C@@H](NC(C)=O)CCCCNC(=O)[C@@H]2CSSC[C@H](NC1=O)C(=O)N[C@@H](Cc1ccc(OCCN(C)C)cc1)C(=O)N[C@@H](Cc1ccc3ccccc3c1)C(=O)NC1(CCOCC1)C(=O)N[C@H](C(=O)N[C@@H](CC(N)=O)C(=O)N[C@@H](Cc1cccnc1)C(=O)N(C)CC(N)=O)CCCCNC(=O)CCC(=O)N2 [compound 105] (Ac-K[Trp(7-Me)]K(Ac)CY(Me2NCH2CH2)[2Nal][Thp]KN[3Pal][Sar]-NH2; linker 1-4-8 via X6) showed a remaining at 1 h, 1 µM (Pancreatin) of 78%, a remaining at 2 h, 1 µM (Pancreatin) of 80% and a remaining at 4 h, 1 µM (Pancreatin) of 77%. The remaining at 1 h, 1 µM (Pepsin) was 93%, the IC50 [1] was 0.55 nM and the IC50 [2] was 0.1 nM.

Work on CC(=O)NCCCC[C@@H]1NC(=O)[C@H](Cc2c[nH]c3c(C)cccc23)NC(=O)[C@@H](NC(C)=O)CCCCNC(=O)[C@@H]2CSSC[C@H](NC1=O)C(=O)N[C@@H](Cc1ccc(OCCN(C)C)cc1)C(=O)N[C@@H](Cc1ccc3ccccc3c1)C(=O)NC(C)(C)C(=O)N[C@H](C(=O)N[C@@H](CC(N)=O)C(=O)N[C@@H](Cc1cccnc1)C(=O)N(C)CC(N)=O)CCC(=O)NCCCCC(=O)N2 [compound 72] (Ac-K[Trp(7-Me)]K(Ac)CY(Me2NCH2CH2)[2Nal][Aib]EN[3Pal][Sar]-NH2; linker 1-4-8 via X1) yielded a remaining at 1 h, 1 µM (Pancreatin) of 91%, a remaining at 2 h, 1 µM (Pancreatin) of 90% and a remaining at 4 h, 1 µM (Pancreatin) of 83%. It also gave a remaining at 1 h, 1 µM (Pepsin) of 92%, an IC50 [1] of 0.59 nM and an IC50 [2] of 0.12 nM.

For CC(=O)N[C@H]1CCCCNC(=O)[C@@H]2CSSC[C@H](NC(=O)[C@H](CC(C)C)NC(=O)[C@H](Cc3c[nH]c4c(C)cccc34)NC1=O)C(=O)N[C@@H](Cc1ccc(OCCN(C)C)cc1)C(=O)N[C@@H](Cc1ccc3ccccc3c1)C(=O)N[C@@](C)(CC(C)C)C(=O)N[C@H](C(=O)N[C@@H](CC(N)=O)C(=O)N[C@@H](Cc1cccnc1)C(=O)N(C)CC(N)=O)CCCCNC(=O)CCC(=O)N2 [compound 158] (Ac-K[Trp(7-Me)]LCY(Me2NCH2CH2)[2Nal][αMeL]KN[3Pal][Sar]-NH2; linker 1-4-8 via X6), the remaining at 1 h, 1 µM (Pancreatin) was 80%, the remaining at 2 h, 1 µM (Pancreatin) was 73% and the remaining at 4 h, 1 µM (Pancreatin) was 74%. The remaining at 1 h, 1 µM (Pepsin) was 37%, the IC50 [1] was 1.93 nM and the IC50 [2] was 0.39 nM.
